Results: patent US20140057895A1, “INDAZOLE- AND PYRROLOPYRIDINE-DERIVATIVE AND PHARMACEUTICAL USE THEREOF” (priority 2011, published 2014)
Counter-ions that a name gives are not always drawn.

Each molecule was assayed against T1, 5-HT4 receptor (Cavia porcellus, UniProt O70528) (assay: Test Example 3: Guinea pig 5-HT4 receptor binding assay, [3H]-GR113808, striatum membranes (Table 98)). Details: Guinea pig 5-HT4 receptor binding assay, [3H]-GR113808, striatum membranes; mean value of each group; read-out: IC50.
T1 construct: striatum was isolated which was cryopreserved at −80° C. until use; from tissue; host or cells: guinea pig (Slc-Hartley) striatum membranes
T1 sequence (O70528 whole entry): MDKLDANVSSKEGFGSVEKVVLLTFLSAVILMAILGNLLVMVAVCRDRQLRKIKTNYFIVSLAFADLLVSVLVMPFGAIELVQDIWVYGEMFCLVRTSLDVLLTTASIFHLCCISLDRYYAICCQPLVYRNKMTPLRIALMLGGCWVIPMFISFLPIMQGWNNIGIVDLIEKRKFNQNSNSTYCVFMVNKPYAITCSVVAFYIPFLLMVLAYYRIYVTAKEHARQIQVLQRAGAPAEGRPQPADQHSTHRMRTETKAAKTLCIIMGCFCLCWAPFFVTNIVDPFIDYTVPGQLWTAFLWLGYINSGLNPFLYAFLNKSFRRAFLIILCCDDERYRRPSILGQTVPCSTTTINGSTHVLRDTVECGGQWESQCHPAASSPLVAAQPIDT
Method: The guinea pig 5-HT4 receptor binding assay and preparations of receptor membrane preparations herein were carried out according to a method of Grossman et al. [see, British J. Pharmacol., (1993) 109, 618].
Slc-Hartley guinea pigs (body weight 300 g to 400 g) were decapitated to remove brain rapidly, and striatum was isolated which was cryopreserved at −80° C. until use. To the obtained tissues were added fifteen fold of Hepes buffer (50 mM, pH 7.4, 4° C.), and the mixture was homogenized by Teflon (trademark) homogenizer and centrifuged at 48,000×g (4° C.) for 15 minutes. To the resulting precipitate was added Hepes buffer (1 ml) to 30 mg by wet weight of tissues, and the mixture was suspended to give receptor membrane preparations.
To an assay tube were added 0.1 nM [^3H]-GR113808 {chemical name: [1-[2-(methylsulfonylamino) ethyl]-4-piperidinyl]methyl 1-methylindole-3-carboxylate}, receptor membrane preparations, and Hepes buffer (50 mM, pH 7.4, 4° C., 1 ml) containing test compounds or 30 μM serotonin; and the mixture was incubated at 37° C. for 30 minutes. On quenching the reaction, the mixture was rapidly filtered on whatman GF/B filter, which was presoaked in 0.1% polyethyleneimine for 1 hour, by using Brandel cell Harvester, and washed with ice-cooled 50 mM Tris-HCl (pH 7.7, 4 ml) three times. To the filter after filtration was added a liquid scintillator (Ecoscint), and then a radioactivity was determined by a liquid scintillation counter.
50% Inhibition concentrations (IC50) were determined from inhibition rates of test compounds to specific bindings which were obtained by subtracting nonspecific bindings from total binding amounts of [^3H]-GR113808. […]

Structure (SMILES)	IC50 [nM]
CC(C)c1nn(-c2noc(C3CCN(CC4CCOCC4)CC3)n2)c2c(F)c(F)ccc12 [Example 453, 6,7-difluoro-3-(propan-2-yl)-1-{5-[1-(tetrahydro-2H-pyran-4-ylmethyl)piperidin-4-yl]-1,2,4-oxadiazol-3-yl}-1H-indazole trifluoroacetate]	28.1
CC(C)c1nn(-c2noc(C3CCN(C4CCOCC4)CC3)n2)c2c(F)c(F)ccc12 [Example 454, 6,7-difluoro-3-(propan-2-yl)-1-{5-[1-(tetrahydro-2H-pyran-4-yl)piperidin-4-yl]-1,2,4-oxadiazol-3-yl}-1H-indazole trifluoroacetate]	< 20
CC(C)c1nn(-c2noc(C3CCN(C4CCOCC4)C3)n2)c2c(F)cccc12 (stereo not shown) [Example 456, 7-fluoro-3-(propan-2-yl)-1-{5-[1-(tetrahydro-2H-pyran-4-yl)pyrrolidin-3-yl]-1,2,4-oxadiazol-3-yl}-1H-indazole]	< 20
CC(=O)N1CCC(N2CCC(c3nc(-n4nc(C(C)C)c5ccc(C)cc54)no3)CC2)CC1 [Example 462, 1-(4-{3-[6-methyl-3-(propan-2-yl)-1H-indazol-1-yl]-1,2,4-oxadiazol-5-yl}-1,4′-bipiperidin-1′-yl}ethanone trifluoroacetate]	109
COCC(=O)N1CCC(N2CCC(c3nc(-n4nc(C(C)C)c5ccc(F)c(F)c54)no3)CC2)CC1 [Example 465, 1-(4-{3-[6,7-difluoro-3-(propan-2-yl)-1H-indazol-1-yl]-1,2,4-oxadiazol-5-yl}-1,4′-bipiperidin-1′-yl)-2-methoxyethanone trifluoroacetate]	< 20
CC(C)c1nn(-c2noc(C3CCN(C4CCN(S(C)(=O)=O)CC4)CC3)n2)c2c(F)cccc12 [Example 466, 4-{3-[7-fluoro-3-(propan-2-yl)-1H-indazol-1-yl]-1,2,4-oxadiazol-5-yl}-1′-(methylsulfonyl)-1,4′-bipiperidine trifluoroacetate]	< 20
CC(=O)N1CC(CN2CCC(c3nc(-n4nc(C(C)C)c5ccc(C)cc54)no3)CC2)C1 [Example 471, 1-{3-[(4-{3-[6-methyl-3-(propan-2-yl)-1H-indazol-1-yl]-1,2,4-oxadiazol-5-yl}piperidin-1-yl)methyl]azetidin-1-yl}ethanone trifluoroacetate]	173
CCc1nn(-c2noc(C3CCN(CC4CCN(C(=O)OC)CC4)CC3)n2)c2c(F)c(F)ccc12 [Example 476, methyl 4-({4-[3-(3-ethyl-6,7-difluoro-1H-indazol-1-yl)-1,2,4-oxadiazol-5-yl]piperidin-1-yl}methyl)piperidin-1-carboxylate trifluoroacetate]	< 20
CC(=O)N1CCC(CN2CCC(c3nc(-n4nc(C(C)C)c5ccc(C)cc54)no3)CC2)CC1 [Example 479, 1-{4-[(4-{3-[6-methyl-3-(propan-2-yl)-1H-indazol-1-yl]-1,2,4-oxadiazol-5-yl}piperidin-1-yl)methyl]piperidin-1-yl}ethanone trifluoroacetate]	94.6
CC(=O)N1CCC(CN2CCC(c3nc(-n4nc(C(C)C)c5ccc(F)c(F)c54)no3)CC2)CC1 [Example 480, 1-{4-[(4-{3-[6,7-difluoro-3-(propan-2-yl)-1H-indazol-1-yl]-1,2,4-oxadiazol-5-yl}piperidin-1-yl)methyl]piperidin-1-yl}ethanone trifluoroacetate]	27.5
CC(=O)N1CCOC(CN2CCC(c3nc(-n4nc(C(C)C)c5cccc(F)c54)no3)CC2)C1 (stereo not shown) [Example 483, 1-{2-[(4-{3-[7-fluoro-3-(propan-2-yl)-1H-indazol-1-yl]-1,2,4-oxadiazol-5-yl}piperidin-1-yl)methyl]morpholin-4-yl}ethanone]	35.7
COC(=O)N1CCOC(CN2CCC(c3nc(-n4nc(C(C)C)c5cccc(F)c54)no3)CC2)C1 (stereo not shown) [Example 484, methyl 2-[(4-{3-[7-fluoro-3-(propan-2-yl)-1H-indazol-1-yl]-1,2,4-oxadiazol-5-yl}piperidin-1-yl)methyl]morpholine-4-carboxylate]	28.1
CC(C)c1nn(-c2noc(C3CCN(CC4CN(C(=O)N(C)C)CCO4)CC3)n2)c2c(F)cccc12 (stereo not shown) [Example 485, 2-[(4-{3-[7-fluoro-3-(propan-2-yl)-1H-indazol-1-yl]-1,2,4-oxadiazol-5-yl}piperidin-1-yl)methyl]-N,N-dimethylmorpholine-4-carboxamide]	21.2
CC(C)c1nn(-c2noc(C3CCN(CC4CN(S(C)(=O)=O)CCO4)CC3)n2)c2c(F)cccc12 (stereo not shown) [Example 486, 7-fluoro-1-[5-(1-{[4-(methylsulfonyl)morpholin-2-yl]methyl}piperidin-4-yl)-1,2,4-oxadiazol-3-yl]-3-(propan-2-yl)-1H-indazole]	< 20
CC(=O)N1CCC(N2CC[C@H](Cc3nc(-n4nc(C(C)C)c5cccc(F)c54)no3)C2)CC1 [Example 495, 1-{4-[(3R)-3-({3-[7-fluoro-3-(propan-2-yl)-1H-indazol-1-yl]-1,2,4-oxadiazol-5-yl}methyl)pyrrolidin-1-yl]piperidin-1-yl}ethanone]	< 20
C=C(C)c1nn(-c2noc(C3CCN(C4CCN(C(=O)CO)CC4)CC3)n2)c2c(F)cccc12 [Example 521, 1-(4-{3-[7-fluoro-3-(prop-1-en-2-yl)-1H-indazol-1-yl]-1,2,4-oxadiazol-5-yl}-1,4′-bipiperidin-1'-yl)-2-hydroxyethanone hydrochloride]	93.7
CC(C)(C)c1nn(-c2noc(C3CCN(C4CCN(C(=O)CO)CC4)CC3)n2)c2ccccc12 [Example 522, 1-{4-[3-(3-tert-butyl-1H-indazol-1-yl)-1,2,4-oxadiazol-5-yl]-1,4′-bipiperidin-1′-yl}-2-hydroxyethanone]	222
CC(C)c1nn(-c2noc(C3CCN(C4CCN(C(=O)CO)CC4)CC3)n2)c2c(F)c(O)ccc12 [Example 552, 1-(4-{3-[7-fluoro-6-hydroxy-3-(propan-2-yl)-1H-indazol-1-yl]-1,2,4-oxadiazol-5-yl}-1,4′-bipiperidin-1′-yl)-2-hydroxyethanone]	179
CC(C)c1nn(-c2noc(C3CCN(C4CCN(C(=O)CO)CC4)CC3)n2)c2c(F)ccc(O)c12 [Example 553, 1-(4-{3-[7-fluoro-4-hydroxy-3-(propan-2-yl)-1,1′-indazol-1-yl]-1,2,4-oxadiazol-5-yl}-1,4′-bipiperidin-1′-yl)-2-hydroxyethanone]	18.7
CC(=O)N1CCC(N2CCC(c3nc(-n4nc(C(C)C)c5ccc(O)c(F)c54)no3)CC2)CC1 [Example 554, 1-(4-{3-[7-fluoro-6-hydroxy-3-(propan-2-yl)-1H-indazol-1-yl]-1,2,4-oxadiazol-5-yl}-1,4′-bipiperidin-1′-yl)ethanone]	190
CC(=O)N1CCC(N2CCC(c3nc(-n4nc(C(C)C)c5c(O)ccc(F)c54)no3)CC2)CC1 [Example 555, 1-(4-{3-[7-fluoro-4-hydroxy-3-(propan-2-yl)-1H-indazol-1-yl]-1,2,4-oxadiazol-5-yl}-1,4′-bipiperidin-1′-yl)ethanone]	24.9
CC(C)c1nn(-c2noc(C3CCN(C4CCN(C(=O)C(=O)O)CC4)CC3)n2)c2c(F)cccc12 [Example 557, potassium (4-{3-[7-fluoro-3-(propan-2-yl)-1H-indazol-1-yl]-1,2,4-oxadiazol-5-yl}-1,4′-bipiperidin-1′-yl)(oxo)acetate]	127
CCCCN1CCC(c2cnc(-n3nc(C(C)C)c4cccc(F)c43)[nH]2)CC1 [Example 562, 1-[5-(1-butylpiperidin-4-yl)-1H-imidazol-2-yl]-7-fluoro-3-(propan-2-yl)-1H-indazole]	478
CCCCN1CCC(c2cnc(-n3nc(C(C)C)c4cccc(F)c43)s2)CC1 [Example 563, 1-[5-(1-butylpiperidin-4-yl)-1,3-thiazol-2-yl]-7-fluoro-3-(propan-2-yl)-1H-indazole]	222
CCCCN1CCC(c2ncc(-n3nc(C(C)C)c4cccc(F)c43)s2)CC1 [Example 564, 1-[2-(1-butylpiperidin-4-yl)-1,3-thiazol-5-yl]-7-fluoro-3-(propan-2-yl)-1H-indazole]	653
